Legend:
SpCas9 [1] = biological target: T1, SpCas9 (Streptococcus pyogenes serotype M1, UniProt Q99ZW2); experiment: Strand displacement assay (SDA) / cumulative activity assay (CAA), SpCas9 primary screen; assay type: biochemical; conditions: Primary Screen (150 min); for Normalized Z score 1: replicate 1; for Normalized Z score 2: replicate 2
Method: Screening of inhibitors was via a high throughput pipeline, as depicted in FIG. 29. The first screening is via a strand displacement assay (SDA) for detecting nuclease activity (FIG. 27A, 28A). The Cpf1/Cas12 protein/DNA complex has a different structure from Cas9 and requires optimization of the potential fluorophore attachment sites (Yamano, T et al., Cell, 2016). (FIG. 28A). Next screened compounds are evaluated in an eGFP cell assay, and for eGFP dose. Those compounds are further narrowed via a HiBiT assay and finally evaluated in the surveyor assay. SAR evaluations are performed to arrive at lead compounds for further evaluations and variations. General methodology for the assays is as described in at [0253]-[0301] of U.S. Patent Application 62/831,143 filed Apr. 8, 2019, incorporated herein by reference.
The 3′ end of the displacing single-stranded DNA was labeled with a quencher. Following nuclease cleavage of the substrate, the 3′-labeled quenching DNA strand (present in excess) could outcompete the weakly held 3′ strand to anneal to the 5′ strand. The resulting FRET fluorescence quenching provides an optical readout for nuclease activity (FIG. 62A).
Typically, SpCas9: gRNA (1:1.2 ratio) RNP was pre-formed at 1 μM in Cas9 assay buffer (20 mM Tris-HCl, pH=7.5, 100 mM KCl, 5 mM MgCl2) for 5 min at 4° C. before diluting to 10 nM in Cas9 assay buffer (2× final concentration). 25 μL of the Cas9 2× stock was manually dispensed to a black 384-well plate (Corning 3575) using electronic pipette. […] Following this, pre-annealed Alexa-Fluor 647 labeled substrate and quencher were also diluted to 1 nM and 5 nM in Cas9 assay buffer, respectively (2× stock solution). Next, 25 μL of the substrate/quencher solution was added manually to each well of the Cas9-containing 384-well plates using an electronic pipette and was incubated at 37° C. for 2.5 h. Fluorescent signals were read with the microplate reader set to read Alexa-Fluor 647 fluorescence. Assay was performed similarly with SaCas9 and FnCas12a using the respective enzyme, gRNA, substrate, and quencher oligos. […]

SpCas9 [2] = biological target: T1, SpCas9; experiment: eGFP disruption assay, SpCas9, U2OS.eGFP.PEST cells; assay type: cell-based; conditions: for Normalized Z rep1 / Z score Rep1: replicate 1; for SpCas9 eGFP disruption Rep1: replicate 1, raw readout; for Normalized Z rep2 / Z socre Rep2: replicate 2; for SpCas9 eGFP disruption Rep2: replicate 2, raw readout
Method in brief: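 Rescue of eGFP signal lost through Cas9-induced NHEJ indels serves as the inhibition read-out, after 24 h compound exposure (20 μM for hits, variable for dose-response). Editing was delivered by nucleofection into U2OS.eGFP.PEST cells as SpCas9/gRNA plasmids (300/30 ng) or RNP (10/12 pmol). Toxic and autofluorescent compounds were excluded.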

[3] = Cas9 = lower control, Ctrl = upper control
[4] = normalized, lower control about 0, upper control about 1

T1 sequence (Q99ZW2 whole entry): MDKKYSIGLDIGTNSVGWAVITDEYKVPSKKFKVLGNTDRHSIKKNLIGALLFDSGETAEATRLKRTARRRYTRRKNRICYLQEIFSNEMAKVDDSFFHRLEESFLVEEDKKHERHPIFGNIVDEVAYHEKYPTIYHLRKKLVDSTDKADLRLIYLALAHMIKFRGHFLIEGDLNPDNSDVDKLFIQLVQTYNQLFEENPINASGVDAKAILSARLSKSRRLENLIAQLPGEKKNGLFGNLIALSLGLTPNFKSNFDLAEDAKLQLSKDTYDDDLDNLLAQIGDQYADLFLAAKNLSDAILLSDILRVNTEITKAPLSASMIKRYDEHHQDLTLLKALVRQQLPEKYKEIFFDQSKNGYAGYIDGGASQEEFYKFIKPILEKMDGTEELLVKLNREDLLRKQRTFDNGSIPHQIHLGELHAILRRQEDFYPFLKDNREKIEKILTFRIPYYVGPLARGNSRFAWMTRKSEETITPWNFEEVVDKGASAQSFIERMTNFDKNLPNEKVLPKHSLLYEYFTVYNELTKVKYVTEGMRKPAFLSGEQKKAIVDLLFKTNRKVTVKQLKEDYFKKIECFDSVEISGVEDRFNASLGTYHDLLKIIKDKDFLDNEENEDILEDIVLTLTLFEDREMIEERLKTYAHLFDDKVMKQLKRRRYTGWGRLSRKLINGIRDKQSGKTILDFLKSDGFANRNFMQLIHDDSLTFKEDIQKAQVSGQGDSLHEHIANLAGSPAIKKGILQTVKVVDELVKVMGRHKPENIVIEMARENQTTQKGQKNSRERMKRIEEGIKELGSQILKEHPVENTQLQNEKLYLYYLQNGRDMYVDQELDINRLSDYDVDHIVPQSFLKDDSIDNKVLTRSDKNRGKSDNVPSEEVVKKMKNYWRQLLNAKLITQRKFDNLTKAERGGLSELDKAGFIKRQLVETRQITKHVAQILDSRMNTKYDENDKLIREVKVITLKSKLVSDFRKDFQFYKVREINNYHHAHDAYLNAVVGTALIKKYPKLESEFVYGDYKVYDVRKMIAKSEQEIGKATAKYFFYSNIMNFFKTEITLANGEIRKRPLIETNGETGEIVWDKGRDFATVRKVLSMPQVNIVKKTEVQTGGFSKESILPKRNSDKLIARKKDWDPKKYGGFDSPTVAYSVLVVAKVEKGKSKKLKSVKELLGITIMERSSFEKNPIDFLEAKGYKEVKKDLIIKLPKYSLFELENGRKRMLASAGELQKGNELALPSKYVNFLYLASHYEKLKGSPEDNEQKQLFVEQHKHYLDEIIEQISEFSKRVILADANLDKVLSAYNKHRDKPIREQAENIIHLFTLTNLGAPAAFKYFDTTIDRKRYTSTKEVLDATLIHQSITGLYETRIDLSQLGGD

Row | SMILES | Average Normalized Z score (SpCas9 [1]) | avg z score primary (SpCas9 [1]) | Normalized Z score 1 (SpCas9 [1]) | Normalized Z score 2 (SpCas9 [1]) | Normalized Z rep1 (SpCas9 [2]) | Z score Rep1 (SpCas9 [2]) | SpCas9 eGFP disruption Rep1 (SpCas9 [2]) | Normalized Z rep2 (SpCas9 [2]) | Z socre Rep2 (SpCas9 [2]) | SpCas9 eGFP disruption Rep2 (SpCas9 [2]) | SpCas9 eGFP disruption Rep1 (SpCas9 [2]; [3]) | Normalized Z rep1 (SpCas9 [2]; [4]) | SpCas9 eGFP disruption Rep2 (SpCas9 [2]; [3]) | Normalized Z rep2 (SpCas9 [2]; [4])
1 | CNS(=O)(=O)c1ccc2nc(NC(=O)c3ccc(N4C(=O)CCC4=O)cc3)sc2c1 [Compound G786-1562] | 0.06 | 6.00 | 0.05 | 0.07 | −0.26 | −2.41 | 57.872 | −0.25 | −3.72 | 60.132 | – | – | – | –
2 | Cc1ccc(-c2nc(CN3CCCC(C(=O)Nc4cc(C)ccc4O)C3)no2)cc1 (stereo not drawn) [Compound J065-2258] | 0.12 | 5.05 | 0.10 | 0.14 | −0.12 | −1.25 | 73.517 | −0.06 | −1.43 | 74.702 | – | – | – | –
3 | C=Cc1ccc(CSC2=NS(=O)(=O)c3ccccc3N2)cc1 [Compound K261-1443] | 0.16 | 4.25 | 0.15 | 0.17 | −0.17 | −1.74 | 72.619 | −0.19 | −4.27 | 72.337 | – | – | – | –
4 | CCc1cccc(-n2nnnc2N2CCN(C(=O)Nc3ccc(C)cc3Cl)CC2)c1 [Compound L378-0331] | 0.19 | 5.44 | 0.16 | 0.21 | −0.41 | −2.70 | 68.157 | 0.06 | 0.61 | 77.513 | – | – | – | –
5 | CC(C)CNC(=O)c1ccc(Oc2ccnc(-c3ccc(F)cc3)n2)cc1 [Compound L662-0597] | 0.37 | 7.15 | 0.36 | 0.37 | 0.00 | 0.02 | 76.108 | −0.15 | −1.39 | 73.535 | – | – | – | –
6 | O=C(NCC1CCCO1)c1ccc(Oc2ccnc(-c3ccc(F)cc3)n2)cc1 (stereo not drawn) [Compound L662-0604] | 0.35 | 6.87 | 0.33 | 0.38 | – | 0.38 | – | – | 0.09 | – | 77.166 | 0.06 | 76.48 | 0.01
7 | O=C(Nc1ccc(F)c(Cl)c1)c1ccc(Oc2ccnc(-c3ccc(F)cc3)n2)cc1 [Compound L662-0654] | 0.30 | 5.79 | 0.30 | 0.29 | −0.13 | −0.84 | 73.611 | −0.14 | −1.37 | 73.579 | – | – | – | –
8 | COc1ccc(OC)c(CNC(=O)c2ccc(Oc3ccnc(-c4cccc(F)c4)n3)cc2)c1 [Compound L662-0973] | 0.29 | 5.63 | 0.35 | 0.24 | – | 0.85 | – | – | 1.27 | – | 78.528 | 0.13 | 78.814 | 0.13
9 | O=C(NCc1ccc(F)cc1)c1ccc(Oc2ccnc(-c3cccc(F)c3)n2)cc1 [Compound L662-0977] | 0.44 | 8.64 | 0.42 | 0.47 | −0.03 | −0.18 | 75.519 | −0.08 | −0.72 | 74.871 | – | – | – | –
